Test results as given in paper PMC11396746, “Stability Evaluation and Pharmacokinetic Profiling of Vepdegestrant in Rodents Using Liquid Chromatography–Tandem Mass Spectrometry” (Molecules, 2024).
Read-outs that look alike come from different tables or passages of the source.

Key:
[1] = Stability of vepdegestrant in mouse plasma under storage conditions (method validation); type: in vitro ADME
Experimental: The results were within ±15% RE under all storage conditions, including at room temperature for 6 h, after three freeze–thaw cycles, at −20 °C for 4 weeks, and in an autosampler for 24 h after sample preparation.
Stability was tested for vepdegestrant in biological samples at LQC and HQC under specific conditions: Short-term stability at room temperature for 6 h, three freeze–thaw cycles, long-term stability at −20 °C for 4 weeks, and pretreated samples in an autosampler for 24 h. The stability test was performed via five replicates analysis, with the acceptance criteria being an RE within ±15% at LQC and HQC levels.

[2] = Plasma protein binding (PPB) using a rapid equilibrium dialysis device; type: in vitro ADME
Experimental: Low plasma stability was predicted based on pH stability results. […] In addition, we evaluated the plasma protein binding (PPB) of vepdegestrant using a rapid equilibrium dialysis device. However, the concentration of vepdegestrant in the buffer was below the quantification limit, making it impossible to determine an accurate binding ratio. This phenomenon persisted even when the administered concentration was increased from 2 to 10 µg/mL or when the plasma was diluted up to 100-fold. […] Furthermore, the recovery of vepdegestrant in the plasma after a 4-h incubation was greater than 85%. The unrecovered fraction may result from nonspecific binding to the device and membrane. Further studies should be conducted using alternative methods.

[3] = Metabolic stability in rat liver microsomes; type: in vitro ADME
Experimental: (§1) The metabolic stability of vepdegestrant was evaluated using liver microsomes obtained from mice, rats, dogs, and humans. Vepdegestrant was dissolved in DMSO to prepare a stock solution with a concentration of 0.1 mM. Microsomes (25 µL) were spiked into PBS (440 µL) and pre-incubated for 5 min. After pre-incubation, vepdegestrant stock solution (5 µL) was added, followed by an NADPH regenerating system (27 µL) to initiate the reaction. The composition of the reaction mixture was as follows: Vepdegestrant (final concentration 1 µM), mouse, rat, dog, human liver microsomes (protein concentration: 1 mg/mL), NADPH regenerating system (final concentrations: 1.3 mM NADP^+, 3.3 mM glucose-6-phosphate, 0.4 U/mL glucose-6-phosphate dehydrogenase, and 3.3 mM magnesium chloride), and PBS (pH 7.4). At 5, 15, 30, and 60 min after starting the reaction, aliquots (50 µL) were taken and added to ice-cold ACN with an IS (200 µL) to terminate the reaction. For the zero-time samples, aliquots were taken before adding NADPH. Subsequently, the mixture was vigorously mixed for 10 min and centrifuged at 17,054 g under 25 °C for 10 min. For analysis, 5 µL of the supernatant was injected into the HPLC-MS/MS system. In addition, the stability of vepdegestrant in rat liver microsomes was assessed in the absence of NADPH or NADPH and microsomes (PBS only). The experimental procedure was the same as described for the microsomal stability test, except that an equivalent volume of PBS was added instead of NADPH or microsomes.

[4] = Metabolic stability in dog liver microsomes; type: in vitro ADME
Experimental: as §1, with “The experimental procedure was the same as described for the microsomal stability test, except that an equivalent volume of PBS was added instead of NADPH or microsomes.” left out

[5] = Stability in PBS only (control of microsomal stability test, no NADPH and no microsomes); type: physicochemical; details: PBS (pH 7.4), 1 h incubation
Experimental: as §1, with “The experimental procedure was the same as described for the microsomal stability test, except that an equivalent volume of PBS was added instead of NADPH or microsomes.” left out

[6] = Pharmacokinetic study in male SD rats; type: in vivo; details: rat
Experimental: Twelve healthy male ICR mice (6 weeks old, 27.5–30.5 g) and 10 healthy male Sprague–Dawley (SD) rats (7 weeks old, 195.5–212.0 g) were acquired from Orient Bio Inc. (Seongnam, Republic of Korea) and used for PK studies. The animals were kept in rooms in a temperature range of 20–25 °C, humidity of 40–60%, and a 12-h light/dark cycle. Before the experiment, mice were fasted for 4 h, whereas rats were fasted for 14 h, with only water provided during the fasting period. After 4 h of drug administration, animals were provided with free access to food and water. All animal experiments were approved by the Institutional Animal Care and Use Committee of the Chungnam National University (202310A-CNU-178; Daejeon, Republic of Korea).
For the PK studies in rats, a vepdegestrant dosing solution was prepared using a combination of DMSO, PEG 400, cremophor EL, and saline (5:40:2.5:52.5, v/v/v/v). The dosages were set at 2 and 5 mg/kg for IV and PO, respectively, consistent with mouse PK studies. The dose volumes were 2 and 5 mL/kg IV and PO, respectively. Blood samples (100 µL) were collected from the jugular vein using heparinized syringes at 0.08 (IV only), 0.25, 0.5, 1, 2, 4, 8, and 24 h post vepdegestrant administration. Blood samples were immediately centrifuged at 12,032 g under 25 °C for 5 min, and plasma aliquots (20 μL) were stored at −20 °C until HPLC-MS/MS analysis.
The collected plasma samples from mice or rats (20 µL) were added with IS (20 µL) and ACN (160 µL). Subsequently, the mixture was vigorously mixed for 10 min and centrifuged at 17,054× g under 25 °C for 10 min. An aliquot of the supernatant (100 μL) was taken, and a volume of 5 μL was injected for HPLC-MS/MS analysis. PK parameters were calculated using Phoenix® 8.3 software (Certara L.P., Princeton, NJ, USA), as described previously.

[7] = male, Sprague-Dawley, plasma, IV 2 mg/kg
[8] = male, Sprague-Dawley, plasma, PO 5 mg/kg

Stability in Mouse Plasma ([1]; 1 month at −20 °C, nominal 3 ng/mL): 103.1 ± 5.4%
Stability in Mouse Plasma ([1]; 1 month at −20 °C, nominal 900 ng/mL): 107.7 ± 4.0%
Stability in Mouse Plasma ([1]; 6 h at room temperature (25 °C), nominal 3 ng/mL): 97.70 ± 4.12%
Stability in Mouse Plasma ([1]; 6 h at room temperature (25 °C), nominal 900 ng/mL): 110.7 ± 2.8%
Stability in Mouse Plasma ([1]; Freeze–thaw three-cycle (−20 °C → RT), nominal 3 ng/mL): 99.78 ± 1.60%
Stability in Mouse Plasma ([1]; Freeze–thaw three-cycle (−20 °C → RT), nominal 900 ng/mL): 103.3 ± 4.1%
Stability in Mouse Plasma ([1]; Processed sample in 10 °C autosampler for 24 h, nominal 3 ng/mL): 104.0 ± 7.2%
Stability in Mouse Plasma ([1]; Processed sample in 10 °C autosampler for 24 h, nominal 900 ng/mL): 98.49 ± 8.79%
recovery at 4 h ([2]; plasma in a rapid equilibrium dialysis device, after 4-h incubation in rapid equilibrium dialysis device, read-out: recovery of vepdegestrant in the plasma): > 85%
fraction unbound at 4 h ([2]; plasma, calculated assuming buffer concentration at the lowest quantifiable limit, actual PPB likely higher): 0.001
half-life at 1 µM ([3]; Sprague-Dawley, liver microsomes, pH 7.4, rat microsomes, 1 μM): 0.615 h
vepdegestrant remaining ([3]; rat microsomes in the absence of NADPH, 1 h incubation): 86.6%
remaining percentage of unconverted vepdegestrant ([3]; rat microsomes, 60 min, 1 μM, with NADPH): 32.2%
remaining percentage of unconverted vepdegestrant ([4]; 60 min, 1 μM, with NADPH): 97.1%
half-life at 1 µM ([4]; beagle, liver microsomes, pH 7.4): 9.85 h
vepdegestrant remaining [5]: 10.2%
Cmax [6, 7]: 850 ± 95 ng/mL
MRT [6, 7]: 4.14 ± 0.348 h
Tmax [6, 7]: 0.083 h
clearance [6, 7]: 17.6 mL/min/kg
half-life [6, 7]: 3.97 ± 0.284 h
Cmax [6, 8]: 108 ± 38 ng/mL
MRT [6, 8]: 6.54 ± 0.965 h
Tmax [6, 8]: 3.2 ± 2.95 h
half-life [6, 8]: 4.07 ± 0.418 h
bioavailability ([6]; male, Sprague-Dawley, plasma, PO 5 mg/kg vs IV 2 mg/kg, read-out: BA (oral bioavailability)): 24.1 ± 9.39%
Vd ([6]; male, Sprague-Dawley, plasma, intravenous, 2 mg/kg, read-out: volume of distribution): > 1 L/kg
Vd ([6]; male, Sprague-Dawley, plasma, iv, 2 mg/kg, IV 2 mg/kg, read-out: Vss): 4.43 ± 0.3 L/kg
AUCinf ([6]; IV 2 mg/kg): 1900 ± 90 ng·h/mL
AUClast ([6]; IV 2 mg/kg): 1880 ± 84 ng·h/mL
Vss ([6]; IV 2 mg/kg, 2 mg/kg): 4.354 ± 0.3 L/kg
AUCinf ([6]; PO 5 mg/kg): 1150 ± 446 ng·h/mL
AUClast ([6]; PO 5 mg/kg): 1120 ± 428 ng·h/mL
clearance as % of liver blood flow ([6]; liver blood flow 3.3 L/h/kg): approximately 31.9%
Compound: O=C1CC[C@H](N2Cc3cc(N4CCN(CC5CCN(c6ccc([C@@H]7c8ccc(O)cc8CC[C@@H]7c7ccccc7)cc6)CC5)CC4)ccc3C2=O)C(=O)N1 [vepdegestrant, Vepdegestrant]
